Results on seven compounds are retold here after ChEMBL document CHEMBL1129106, “The development of non-steroidal dual inhibitors of both human 5-reductase isozymes” (Bioorg Med Chem Lett, 1996).

Series [1] can be described thus: Half-life in rat plasma. The class given is ADME, organism-based.
Series [2] can be described thus: Volume of distribution in dog. The series is classed as ADME, organism-based, Canis lupus familiaris. The conditions noted are these: in vivo.
A short description of series [3]: Volume of distribution in rat. The series is classed as ADME, organism-based. Particulars: in vivo.
Series [4] is described as follows: Plasma clearance in dog. The series is classed as ADME, organism-based, Canis lupus familiaris.
Series [5] is described as follows: Plasma clearance in rat. The series is classed as ADME, organism-based.
Series [6] can be described thus: Oral bioavailability in rat. The class given is ADME, organism-based. Particulars: in vivo.
Series [7] is described as follows: Oral bioavailability in dog. The class given is ADME, organism-based, Canis lupus familiaris. Particulars: in vivo.
The target of series [8] is T1, 3-oxo-5-alpha-steroid 4-dehydrogenase 2 (Homo sapiens) (UniProt P31213).
T1 sequence (whole entry): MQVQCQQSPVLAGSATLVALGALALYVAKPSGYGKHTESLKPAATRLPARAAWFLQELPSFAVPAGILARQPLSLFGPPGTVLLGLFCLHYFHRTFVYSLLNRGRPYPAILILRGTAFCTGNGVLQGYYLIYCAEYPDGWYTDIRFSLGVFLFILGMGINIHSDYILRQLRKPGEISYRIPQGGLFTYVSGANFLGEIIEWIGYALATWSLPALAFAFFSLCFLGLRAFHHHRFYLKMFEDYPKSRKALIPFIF
Nature of the series: Compound was tested in vitro for its inhibitory activity against human 5Alpha-R2 expressed as potency.

Series [9] deals with Steroid 5-alpha-reductase (Rattus norvegicus) (UniProt P24008+P31214). In words: Compound was tested in vitro for its inhibitory activity against rat 5Alpha-R expressed as potency. The series is classed as protein assay.
Chain of Steroid 5-alpha-reductase (Rattus norvegicus) (P24008 whole entry, looked up): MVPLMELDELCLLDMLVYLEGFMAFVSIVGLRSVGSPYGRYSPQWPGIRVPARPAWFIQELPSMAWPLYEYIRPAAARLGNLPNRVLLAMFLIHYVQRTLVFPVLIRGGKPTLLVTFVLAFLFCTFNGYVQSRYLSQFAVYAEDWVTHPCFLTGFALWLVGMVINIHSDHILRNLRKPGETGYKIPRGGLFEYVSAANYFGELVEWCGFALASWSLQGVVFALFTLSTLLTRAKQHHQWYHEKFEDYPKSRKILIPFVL
Chain of Steroid 5-alpha-reductase (Rattus norvegicus) (P31214 whole entry, looked up): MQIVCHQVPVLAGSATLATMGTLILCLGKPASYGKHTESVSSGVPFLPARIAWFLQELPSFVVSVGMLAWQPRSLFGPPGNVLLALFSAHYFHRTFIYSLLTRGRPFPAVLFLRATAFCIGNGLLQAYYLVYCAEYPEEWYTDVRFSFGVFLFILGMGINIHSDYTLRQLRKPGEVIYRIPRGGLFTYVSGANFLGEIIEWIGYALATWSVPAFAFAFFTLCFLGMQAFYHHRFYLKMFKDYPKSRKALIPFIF
The target in series [10] is T2, 3-oxo-5-alpha-steroid 4-dehydrogenase 1 (Homo sapiens) (UniProt P18405).
T2 sequence (whole entry): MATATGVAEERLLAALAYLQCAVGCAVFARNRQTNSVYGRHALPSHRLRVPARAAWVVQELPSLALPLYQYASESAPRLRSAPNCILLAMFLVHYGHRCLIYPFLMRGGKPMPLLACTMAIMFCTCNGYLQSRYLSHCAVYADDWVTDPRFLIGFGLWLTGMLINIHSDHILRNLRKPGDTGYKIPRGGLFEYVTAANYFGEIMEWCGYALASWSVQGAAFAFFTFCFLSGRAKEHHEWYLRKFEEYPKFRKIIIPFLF
Nature of the series: Compound was tested in vitro for its inhibitory activity against human 5Alpha-R1 expressed as potency.

Take `CC(C)Cc1ccc([C@H](C)Oc2ccc(C(=O)c3cn(CCCC(=O)O)c4ccccc34)cc2)cc1`: the half-life (in general, the time in which the quantity being followed falls by half) in series [1] is 222 min. Also, the Vd (commonly the apparent volume that relates the amount in the body to the concentration in plasma or blood) in [2] came out at 0.9 L/kg; in [3], 3.6 L/kg. The figures for the clearance in series [4] and in [5] were 2.4 mL/min/kg and 11 mL/min/kg, respectively. Also, the bioavailability – broadly, dose-corrected exposure relative to a reference, in per cent – in [6] was 56%; in series [7], 86%. The Potency in series [8] was 4 nM; in series [9], 1 nM; in [10] it was 40 nM.
For the compound `O=C(O)CCCn1cc(C(=O)c2ccc3c(c2)OC(c2ccccc2)(c2ccccc2)O3)c2ccccc21`, the results for the Potency in [8], in series [9] and in [10] were 34 nM, 3 nM and 23 nM, respectively.
The matching figures for `CC(C)Cc1ccc(C(C)Oc2ccc(C(=O)N3CC(CCCC(=O)O)c4ccccc43)cc2)cc1` (stereo unspecified): 481 nM, 24 nM and 113 nM.
Regarding `CC(C)Cc1ccc([C@]2(C)Oc3ccc(C(=O)c4cn(CCCC(=O)O)c5ccccc45)cc3O2)cc1`, the figures for the Potency in series [8], in series [9] and in series [10] were 23 nM, 9 nM and 25 nM, respectively.
On to `Cc1c(O[C@@H](C)c2ccc(CC(C)C)cc2)ccc(C(=O)Nc2ccccc2OCCCC(=O)O)c1C`, for which the Potency in [8] stood at 256 nM.
As to `CC(C)Cc1ccc([C@@H](C)Oc2ccc(C(=O)c3cn(CCCC(=O)O)c4ccccc34)cc2)cc1`, the Potency was found to be 69 nM in [8], 30 nM in series [9] and 574 nM in [10].
On to `CCCc1ccc(OC(C)c2ccc(C(=O)c3cn(CCCC(=O)O)c4ccccc34)cc2)cc1` (stereo unspecified), for which the figures for the Potency in series [8], in [9] and in series [10] were 10 nM, 5 nM and 8 nM, respectively.
